Measurements as given in paper PMC8279484 (Journal of Medicinal Chemistry, 2021).

Columns and labels:
[1] = test system: wild-type HEK-293 cells; assay: Intracellular calcium flux in wild-type HEK-293 (specificity control); format: cell-based, human
Protocol: (§1) To explore the mechanism of action through which the sLXm lead compound exerts the effects seen here, its interaction with the ALX/FPR2 receptor was investigated and agonist-induced intracellular calcium transients were measured using an engineered cell line stably overexpressing the ALX/FPR2 receptor and the Gαq subunit coupled to it (Figure S6). Wild-type HEK cells were used as controls, to verify the specificity of the agonism toward ALX/FPR2, as previously reported.[36] Briefly, prior to cell plating, sterile 96-well plates (black-sided with optically clear glass flat bottoms) were PDL-coated overnight. Subsequently, 2 × 10^5 wild-type cells and overexpressed cells/well were cultured for 18 h in DMEM complete media (containing Ca^2+ and Mg^2+) to facilitate adherence prior to labeling with Fluo-4 dye. After 1 h of incubation at 37 °C with Fluo-4, cells were gently washed twice and placed in 100% Hanks’ balanced salt solution (HBSS; 37 °C) before reading the fluorescence (485/535 nm), using a spectrophotometer conjugated with an injection system (Clariostar BMG LABTECH plate reader), allowing addition to the cells of controls (1 mM ATP, a GPCR purinergic agonist, 2 nM Wp, a synthetic ALX/FPR2 agonist) or experimental treatments [10 pM, 1 nM, and 100 nM LXA41 or (R)-6].

[2] = target: T1, ALX/FPR2 receptor (Homo sapiens, UniProt P25090); assay: Intracellular calcium flux in FPR2+/Gαq+ stably transfected HEK-293; format: cell-based; conditions: ATP 1 μM; Wp 2 nM
T1 construct: host or cells: HEK-293, stably double-transfected FPR2+/Gαq+
T1 sequence (P25090 1-351): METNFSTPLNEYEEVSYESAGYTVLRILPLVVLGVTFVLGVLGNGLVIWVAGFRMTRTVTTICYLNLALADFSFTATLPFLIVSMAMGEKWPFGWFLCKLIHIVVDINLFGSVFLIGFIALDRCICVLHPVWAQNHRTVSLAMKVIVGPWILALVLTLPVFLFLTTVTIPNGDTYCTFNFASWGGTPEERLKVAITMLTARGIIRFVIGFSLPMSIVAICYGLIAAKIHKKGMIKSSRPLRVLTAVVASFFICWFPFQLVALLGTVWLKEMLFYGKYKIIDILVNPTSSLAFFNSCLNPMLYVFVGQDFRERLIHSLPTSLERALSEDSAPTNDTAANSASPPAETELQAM
Protocol: HEK-293-transfected and wt cell lines were cultured in Dulbecco’s modified Eagle’s medium (DMEM Glutamax, 4 mM L-glu and 4.50 g/L glucose—Gibco, Ireland) supplemented with heat-inactivated (30 min at 56C) 10% (v/v) FBS (Invitrogen, U.K.), 50 U penicillin, and 50 μg of streptomycin (Invitrogen, U.K.). As stably double-transfected FPR2^+/Gαq^+ HEK-293 cells were resistant to Geneticin and Hygromycin, these were used as selective antibiotics (500 and 100 μg/mL, respectively) to maintain the stable double transfection with the ALX/FPR2 receptor and the Gαq subunit coupled to it. Immediately prior to calcium measurement, fluorescently labeled cells were treated with 10^–11/–9/–7M LXA41 or sLXms using an injection system coupled to the fluorescence reader.
as §1, with “([…],” for “(1 mM ATP, a GPCR purinergic agonist,”
During calcium flux measurement, the kinetic steps involved were the following: the baseline fluorescent signal was measured for 20 s, followed by 100 s immediately after agonist injection. Subsequently, 2% Triton-X-100 was added to lyse the cells (monitoring for 20 s the maximal release of calcium ions in the extracellular environment) and, finally, 25 mM tetraacetic acid (EGTA) was added to chelate calcium ions (monitoring for additional 20 s the minimal detection of calcium ions in the extracellular environment) (Figure S7).
(§2) The “coding” of the heat-map indicates the arbitrary criteria to assign points to each single PD component (efficacy = Imax or Emax; potency = IC50 or EC50; slope = HS) to generate a final (aggregate) relative PD score. If a single PD component was greater than the reference level (x > 1), then the single-component relative score was arbitrarily set to +1 (light green) or +2 (dark green). If a single PD component was equal to the reference level (x = 1), then the single-component relative score was arbitrarily set to 0 (gray). If a single PD component was smaller than the reference level (x < 1), then the single-component relative score was arbitrarily set to −1 (light red) or −2 (dark red). If the curve of a single PD component was best fitting to a flat line (x = 0), then the single-component relative score was arbitrarily set to −4 (purple) (Table S1).

[3] = test system: IL-6; assay: LPS-induced IL-6 release from THP-1 Lucia monocytes (multiplex electrochemiluminescence); format: cell-based, human; conditions: Dex 1 μM; 2 1 pM; LPS 50 ng/mL, 24 h
Protocol: (§3) LXA41 and all of the tested sLXms were dissolved in ethanol and further diluted in a culture medium (final ethanol concentration 0.1%; equivalent concentrations were used as the vehicle control). Prior to in vitro experiments, THP-1-Lucia NF-κB cells were harvested and plated at 1 × 10^5 cells/well on 96-well plates and left to settle in the incubator at 37 °C, 95% humidity, and 5% CO2, in 0.1% FBS-containing media, pretreated for 30 min with increasing doses of LXA41, sLXms (from 10^–12 to 10^–6 M), or appropriate controls, followed by stimulation with 50 ng/mL LPS for 24 h. Untreated (Unt) or vehicle-treated (Veh) cells were used as negative controls; 1 pM (1R)-5, the (1R)-epimer of the benzo-mimetic, was used as a positive control for any aromatic mimetic; and, finally, we compared the observed effects to the conventional glucocorticoid dexamethasone (Dex) treatment, at 1 μM.
(§4) After 24 h of exposure to LXA41, sLXms, or vehicle, followed by LPS stimulation (50 ng/mL), as described above, THP-1-Lucia NF-κB-cell supernatants were collected and cleared by centrifugation. Concentrations of IFN-γ, IL-1β, IL-6, IL-8, IL-10, IL-12p70, and TNF-α in culture supernatants were assessed by electro-chemi-luminescent detection, using a commercially available human 96-well plate “multiplex” (several analytes in the same well) kit for tissue culture samples, according to the manufacturers’ guidelines.
as §2

[4] = test system: IFNγ; assay: LPS-induced IFNγ release from THP-1 Lucia monocytes (multiplex electrochemiluminescence); format: cell-based, human; conditions: Dex 1 μM; 2 1 pM; LPS 50 ng/mL, 24 h
Protocol: as §3, §4, §2

[5] = test system: NF-κB; design: method as in PMID 30213823; conditions: LXA4 1 0.1 nM; 2 1 nM; cited from earlier work
[6] = test system: THP-1 LUCIA monocytes; assay: Intrinsic cytotoxicity: LDH release without LPS; format: cell-based, human; conditions: absence of LPS, 24 h; controls Dex 1 μM, 2 1 pM, 5 1 pM
Protocol: (§5) We investigated the potential cytotoxicity of all candidate sLXms by assaying LDH release.[50] The response to LPS was arbitrarily set to 100%, and values were expressed relative to this. As previously reported by others, LPS provokes LDH release.[51] […] Ultimately, untreated cells defined the spontaneous cell release thresholds.
(§6) Lactate dehydrogenase (LDH) was assayed in cell supernatants to investigate possible cytotoxicity of the lead compound. LDH is rapidly released into the culture medium after disruption of the plasma membrane.[67],[69] After 24 h of exposure to sLXms, vehicle, or controls, followed by LPS stimulation, as described above, THP-1-Lucia NF-κB-cell supernatants were collected and LDH was assayed. Cytotoxicity was evaluated relative to vehicle controls. Maximum releasable LDH was determined in cells lysed with 2% Triton-X-100 (Sigma-Aldrich, Ireland). LDH levels were assessed by reading the absorbance at 490 nm (protein) and 690 nm (background noise), using a spectrophotometer (SPECTRAMAX M2, Molecular Devices (U.K.) Limited).

[7] = test system: IL-1β; assay: LPS-induced IL-1β release from THP-1 Lucia monocytes (multiplex electrochemiluminescence); format: cell-based, human; conditions: Dex 1 μM; 2 1 pM; LPS 50 ng/mL, 24 h
Protocol: as §3, §4, §2

[8] = test system: IL-8; assay: LPS-induced IL-8 release from THP-1 Lucia monocytes (multiplex electrochemiluminescence); format: cell-based, human; conditions: Dex 1 μM; 1 1 nM; (R)-6 concentration not given
Protocol: as §3, §4

[9] = test system: C57BL/6J mice; assay: Murine zymosan-induced peritonitis; format: in vivo, mouse
Protocol: Male C57BL/6J mice of 9 weeks of age were purchased from Charles River (Kent, U.K.) and were housed in a specific pathogen-free facility in individually ventilated and filtered cages under positive pressure. Peritonitis was induced in mice by ip injection of zymosan (purchased from Sigma-Aldrich; 1 mg per mouse in 0.5 mL of phosphate-buffered saline (PBS)).[73] Mice were treated with dexamethasone (1 μg/g) purchased from Sigma-Aldrich 1 h prior to zymosan injection or (R)-6 (2 and 6 ng/g) (200 μL IP) 30 min prior to zymosan injection. Peritoneal cells were collected by lavage 4 h after injection of zymosan. The local Animal Use and Care Committee and The UK Home Office approved the animal experiments in accordance with the derivatives of both The Home Office Guidance on the Operation of Animals (Scientific Procedures) Act 1986 and The Guide for the Care and Use of Laboratory Animals of the National Research Council.
Surface marker expression on peritoneal cells was assessed by flow cytometry with data collection on a FACSCalibur (Becton Dickinson). Data were analyzed with FlowJo analysis software (Treestar Inc.). Cells were stained with AlexaFluor488 conjugated anti-F4/80 (clone BM8; eBioscience); APC conjugated anti-CD11b (clone M1/70; eBioscience) and Pacific blue conjugated anti-Ly6G (clone 1A8; BioLegend) antibodies. Prior to surface staining, peritoneal cells were counted manually (Neubauer chamber) with Turks solution. Using appropriate fluorescence minus one (FMO) controls, quadrants were drawn, and data were plotted on logarithmic-scale density- or dot-plots.

[10] = test system: THP-1 LUCIA monocytes; assay: Extrinsic cytotoxicity: LDH release after LPS challenge; format: cell-based, human; conditions: Dex 1 μM
Protocol: as §5, §6

Nc1ncnc2c1ncn2[C@@H]1O[C@H](COP(=O)(O)OP(=O)(O)OP(=O)(O)O)[C@@H](O)[C@H]1O [ATP]
Ca^2+ mobilization in wild-type HEK-293 cells [1]: stimulated Ca^2+ mobilization | Ca^2+ mobilization by positive controls [2]: Ca^2+ mobilization was observed

CCCCC[C@@H](O)c1ccccc1/C=C/[C@@H](O)[C@@H](O)CCCC(=O)OC [Compound 2, benzo-LXA4, reference compound]
Imax, IL-6 release, single-point controls [3]: 42 ± 3% | attenuation of IFNγ release, single-point controls [4]: did not significantly alter | effect on TNF-α-stimulated NF-κB activity [5]: reduced TNF-α-stimulated NF-κB activity | intrinsic LDH release versus vehicle / spontaneous cell release [6]: did not display any significant cytotoxic effect | Imax, IL-1β release, single-point controls [7]: 59 ± 4%

C[C@@H]1C[C@H]2[C@@H]3CCC4=CC(=O)C=C[C@]4(C)[C@@]3(F)[C@@H](O)C[C@]2(C)[C@@]1(O)C(=O)CO [Dex, dexamethasone, reference compound]
Imax, IL-6 release, single-point controls [3]: 98 ± 1% | enhancement of LPS-induced secretion of IL-8 [8]: 2.5 fold | attenuation of IFNγ release, single-point controls [4]: 56 ± 2% | Total no of PMNs ([9]; Dex ip (1 mg/kg in Figure 9) + zymosan 40 mg/kg, n = 5 mice): 2.4 ± 0.7 × 10^6/mL | relative proportion of PMNs and monocytes/macrophages (flow cytometry) ([9]; peritoneal cells, data not shown): not to be altered | intrinsic LDH release versus vehicle / spontaneous cell release [6]: did not display any significant cytotoxic effect | Imax, IL-1β release, single-point controls [7]: 86 ± 6% | effect on LPS-induced LDH [10]: did not reduce LPS-induced LDH

W-peptide [Wp]
Ca^2+ mobilization in wild-type HEK-293 cells [1]: without effect | Ca^2+ mobilization by positive controls [2]: Ca^2+ mobilization was observed
